Reference: patent publication US20230312542A1, “HYDROXYPYRROLIDINE DERIVATIVE AND MEDICINAL APPLICATION THEREOF” (MITSUBISHI TANABE PHARMA CORPORATION, priority 2020, published 2023)
Where two headings read alike, the source gives them in different places.

Target: VHL (co-expressed with Elongin B and Elongin C) (Homo sapiens (Human), UniProt P40337)
Assay: Measurement of intermolecular interactions using surface plasmon resonance (Biacore T200), Kd value for VHL
Type: binding
Text: As the device, Biacore T200 (manufactured by GE Healthcare) was used. VHL was obtained by co-expressing Elongin B and Elongin C with a Twin-Strep-tag added to the N-terminus. As the sensor chip, Sensor chip CM5 (manufactured by GE Healthcare) was used. First, Strep-Tactin XT (manufactured by GE Healthcare) was immobilized on the sensor chip by amine coupling. Thereafter, VHL was immobilized using the affinity of Strep-Tactin XT and Twin-Strep-tag, and VHL was further immobilized on the sensor chip by amine coupling.
As the running buffer, a mixed solution of 20 mM HEPES pH 7.5, 150 mM NaCl, 1 mM TCEP, 0.005% Tween 20, and 2% DMSO was used. […] The Contact time and the Dissociation time were determined according to the properties of the compounds. For many compounds, 60 seconds and 120 seconds were respectively used.

[1] = SPR, immobilized VHL, 25° C., read-out: Kd

VHL (co-expressed with Elongin B and Elongin C), sequence (P40337 whole entry, looked up): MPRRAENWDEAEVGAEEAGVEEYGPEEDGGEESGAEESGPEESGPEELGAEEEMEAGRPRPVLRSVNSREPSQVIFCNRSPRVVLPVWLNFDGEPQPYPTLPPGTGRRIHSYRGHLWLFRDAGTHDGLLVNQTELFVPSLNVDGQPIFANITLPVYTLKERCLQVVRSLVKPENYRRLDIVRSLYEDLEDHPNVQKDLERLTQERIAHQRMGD
VHL (co-expressed with Elongin B and Elongin C), sequence (Q15370 whole entry partner, looked up): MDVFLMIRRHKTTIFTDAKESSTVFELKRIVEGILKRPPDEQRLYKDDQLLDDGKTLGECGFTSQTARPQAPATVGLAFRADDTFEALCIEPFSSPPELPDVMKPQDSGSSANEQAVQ
VHL (co-expressed with Elongin B and Elongin C), sequence (Q15369 whole entry partner, looked up): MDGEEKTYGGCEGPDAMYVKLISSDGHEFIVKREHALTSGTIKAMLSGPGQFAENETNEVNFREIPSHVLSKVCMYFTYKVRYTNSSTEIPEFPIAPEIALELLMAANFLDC

Row | SMILES | Kd [1] [µM] | Kd [µM]
1 | COc1cc(C(C(=O)N2C[C@H](O)C[C@H]2c2nc(C(=O)N3CCN(c4ccccc4)CC3)c[nH]2)C(C)C)on1 (stereo partly drawn) [Example 140, 1-[(2S,4R)-4-hydroxy-2-[4-(4-phenylpiperazine-1-carbonyl)-1H-imidazol-2-yl]pyrrolidin-1-yl]-2-(3-methoxyisoxazol-5-yl)-3-methylbutan-1-one] | 1 to 10 | 
2 | COc1cc(C(C(=O)N2C[C@H](O)C[C@H]2c2nc(C(=O)N3CCC(OCc4ccccc4)CC3)c[nH]2)C(C)C)on1 (stereo partly drawn) [Example 141, 1-[(2S,4R)-2-[4-(4-benzyloxypiperidine-1-carbonyl)-1H-imidazol-2-yl]-4-hydroxypyrrolidin-1-yl]-2-(3-methoxyisoxazol-5-yl)-3-methylbutan-1-one] | 1 to 10 | 
3 | COc1cc(C(C(=O)N2C[C@H](O)C[C@H]2c2nc(C(=O)N3CCC(c4ccc(C)cn4)CC3)c[nH]2)C(C)C)on1 (stereo partly drawn) [Example 144, 1-[(2S,4R)-4-hydroxy-2-[4-[4-(5-methyl-2-pyridyl)piperidine-1-carbonyl]-1H-imidazol-2-yl]pyrrolidin-1-yl]-2-(3-methoxyisoxazol-5-yl)-3-methylbutan-1-one] | 1 to 10 | 
4 | COc1cc(C(C(=O)N2C[C@H](O)C[C@H]2c2nc(C)cs2)C(C)C)on1 (stereo partly drawn) [Example 147, 1-[(2S,4R)-4-hydroxy-2-(4-methylthiazol-2-yl)pyrrolidin-1-yl]-2-(3-methoxyisoxazol-5-yl)-3-methylbutan-1-one] | 10 to 50 | 
5 | COc1cc(C(C(=O)N2C[C@H](O)C[C@H]2c2nc(C(=O)N3CCCC(C(=O)Nc4ccccc4)C3)c[nH]2)C(C)C)on1 (stereo partly drawn) [Example 148, 1-[2-[(2S,4R)-4-hydroxy-1-[2-(3-methoxyisoxazol-5-yl)-3-methylbutanoyl]pyrrolidin-2-yl]-1H-imidazole-4-carbonyl]-N-phenylpiperidine-3-carboxamide] | 1 to 10 | 
6 | COc1cc(C(C(=O)N2C[C@H](O)C[C@H]2c2nc(C(=O)N3CCC(Nc4ccccc4)CC3)c[nH]2)C(C)C)on1 (stereo partly drawn) [Example 150, 1-[(2S,4R)-2-[4-(4-anilinopiperidine-1-carbonyl)-1H-imidazol-2-yl]-4-hydroxypyrrolidin-1-yl]-2-(3-methoxyisoxazol-5-yl)-3-methylbutan-1-one] |  | 1 to 10
7 | COc1cc(C(C(=O)N2C[C@H](O)C[C@H]2c2nc(C(=O)N(C)Cc3ccc(-c4ccnc(C)c4)cc3)c[nH]2)C(C)C)on1 (stereo partly drawn) [Example 153, 2-[(2S,4R)-4-hydroxy-1-[2-(3-methoxyisoxazol-5-yl)-3-methylbutanoyl]pyrrolidin-2-yl]-N-methyl-N-[[4-(2-methyl-4-pyridyl)phenyl]methyl]-1H-imidazole-4-carboxamide] | < 1 | 
8 | COc1cc(C(C(=O)N2C[C@H](O)C[C@H]2c2nc(C(=O)N(C)Cc3ccc(-c4ccc(C)nc4)cc3)c[nH]2)C(C)C)on1 (stereo partly drawn) [Example 154, 2-[(2S,4R)-4-hydroxy-1-[2-(3-methoxyisoxazol-5-yl)-3-methylbutanoyl]pyrrolidin-2-yl]-N-methyl-N-[[4-(6-methyl-3-pyridyl)phenyl]methyl]-1H-imidazole-4-carboxamide] | < 1 | 
9 | COc1cc(C(C(=O)N2C[C@H](O)C[C@H]2c2nc(C(=O)N(C)CC3CCN(Cc4ccccc4F)CC3)c[nH]2)C(C)C)on1 (stereo partly drawn) [Example 155, N-[[1-[(2-fluorophenyl)methyl]-4-piperidyl]methyl]-2-[(2S,4R)-4-hydroxy-1-[2-(3-methoxyisoxazol-5-yl)-3-methylbutanoyl]pyrrolidin-2-yl]-N-methyl-1H-imidazole-4-carboxamide] | 1 to 10 | 
10 | COc1cc(C(C(=O)N2C[C@H](O)C[C@H]2c2nc(C(=O)N(C)CCNc3ccccc3)c[nH]2)C(C)C)on1 (stereo partly drawn) [Example 158, N-(2-anilinoethyl)-2-[(2S,4R)-4-hydroxy-1-[2-(3-methoxyisoxazol-5-yl)-3-methylbutanoyl]pyrrolidin-2-yl]-N-methyl-1H-imidazole-4-carboxamide] | < 1 | 
11 | COc1cc(C(C(=O)N2C[C@H](O)C[C@H]2c2nc(C(=O)N(C)[C@H](C)C(=O)NCc3ccccc3)c[nH]2)C(C)C)on1 (stereo partly drawn) [Example 159, N-[(1R)-2-(benzylamino)-1-methyl-2-oxo-ethyl]-2-[(2S,4R)-4-hydroxy-1-[2-(3-methoxyisoxazol-5-yl)-3-methylbutanoyl]pyrrolidin-2-yl]-N-methyl-1H-imidazole-4-carboxamide] | < 1 | 
12 | Cc1cc(-c2cnn(C(C(=O)N3C[C@H](O)C[C@H]3c3ncc[nH]3)C(C)C)c2)on1 (stereo partly drawn) [Example 160, 1-[(2S,4R)-4-hydroxy-2-(1H-imidazol-2-yl)pyrrolidin-1-yl]-3-methyl-2-[4-(3-methylisoxazol-5-yl)pyrazol-1-yl]butan-1-one] | 10 to 50 | 
13 | CCCc1nc(C(C(=O)N2C[C@H](O)C[C@H]2c2ncc[nH]2)C(C)C)no1 (stereo partly drawn) [Example 161, 1-[(2S,4R)-4-hydroxy-2-(1H-imidazol-2-yl)pyrrolidin-1-yl]-3-methyl-2-(5-propyl-1,2,4-oxadiazol-3-yl)butan-1-one] | 10 to 50 | 
14 | CCCc1nnc(C(C(=O)N2C[C@H](O)C[C@H]2c2ncc[nH]2)C(C)C)o1 (stereo partly drawn) [Example 162, 1-[(2S,4R)-4-hydroxy-2-(1H-imidazol-2-yl)pyrrolidin-1-yl]-3-methyl-2-(5-propyl-1,3,4-oxadiazol-2-yl) butan-1-one] | 10 to 50 | 
